# Laboratory results: paper PMC8232621, “Antimicrobial Activity of a Library of Thioxanthones and Their Potential as Efflux Pump Inhibitors” (Pharmaceuticals, 2021)
# Like-named read-outs stand apart in the source and are kept apart here.
# Legend:
# P-gp = test system: P-gp; set-up: method as in PMID 22044878; details: cited from earlier work
# [1] = Cytotoxicity in NIH/3T3 cell line (MTT assay); assay type: cell-based; details: mouse, read-out: IC50 (µM) ± SD, cytotoxicity
# Procedure: Before each cytotoxicity assay using this cell line, cells were seeded in untreated 96-well flat-bottom microtiter plates, following a 4-hour incubation period in a humidified atmosphere (5% CO2, 95% air) at 37 °C [47]. […] Prior to the assay, the cells were seeded for 4 h using 1 × 10^4 cells/well. […] The plates were incubated for 24 h, after which a solution of MTT in PBS was added to each well and incubated for another 4 h. After this, 100 μL of SDS (10% in a 0.01 M HCl solution) was added to each well and incubated overnight at 37 °C. Doxorubicin was used as a positive control. Cell growth was determined in quadruplicate by measuring OD at λ = 540 nm (reference 630 nm) in a Multiscan EX ELISA reader (Thermo Labsystems, Cheshire, WA, USA). […] (2) 100−ODsample−ODmedium control/ODcell control−ODmedium control×100 […]
# E. coli SA/2 = test: Synergy with cefotaxime (antibiotic MIC in presence of compound); assay type: cell-based
# From the text: The referred library of thioxanthones was initially tested for their antimicrobial activity against six bacterial strains: the Gram-negative Escherichia coli ATCC 25922, Pseudomonas aeruginosa ATCC 27853 and Salmonella enterica serovar Typhimurium SL1344 (SE03), with the acrA gene deleted, and the Gram-positive Staphylococcus aureus ATCC 29213, Enterococcus faecalis ATCC 29212 and the methicillin and ofloxacin-resistant clinical isolate S. aureus 272123. For the synergy assay, two clinically relevant isolates were used: the extended-spectrum β-lactamase (ESBL)-producing E. coli SA/2 [23] and the vancomycin-resistant E. faecalis (VRE) B3/101 [23]. The antibiotics used were cefotaxime (CTX) and vancomycin (VAN), respectively.
# The combined effect of the compounds and clinically relevant antimicrobial drugs was evaluated by determining the antibiotic’s MIC in the presence of each compound. […] The antibiotic tested was serially diluted, whereas the concentration of each compound was kept fixed. […]
# P-glycoprotein (P-gp) = test: Flow cytometry analysis of P-glycoprotein expression in Caco-2 cells (UIC2-PE antibody); assay type: cell-based, human; details: 20 µM, 24 h
# Procedure: However, the ability of compounds 9–17 to interfere with the fluorescence of the UIC2-PE antibody was assessed first. For this purpose, Caco-2 cells were incubated for 24 h, in the presence or absence of thioxanthone derivatives (20 μM), and subsequently analysed, by flow cytometry, as described for the P-gp expression assay. A remarkable increase in the intracellular fluorescence of cells exposed to compounds 10–13 and 15–17 was observed, making it impossible to assess the effect of these thioxanthone derivatives on P-gp expression. In fact, compounds 15–17 had previously been reported as fluorescent compounds [15] and this characteristic limited some of the studies reported herein. […] Briefly, Caco-2 cells were seeded in 24-well plates at a density of 60,000 cells/cm^2 and exposed, three days after seeding, to a non-cytotoxic concentration of the tested compounds (20 µM). […] The cells were then washed twice with HBSS (+/+), centrifuged (300 g for 5 min, at 4 °C) and kept on ice until analysis. […] The parameter used for comparison was the mean fluorescence intensity (MFI), calculated as a percentage of control cells (0 μM). The cells autofluorescence (unlabelled cells with or without exposure to the tested compounds) was also evaluated to eliminate its potential contribution to the analysed fluorescence signals. […]
# Caco-2 cells [2] = test: Cytotoxicity in Caco-2 cells, neutral red (NR) uptake assay; assay type: cell-based, human; details: 24 h after exposure
# Procedure: (§1) Caco-2 cells were routinely cultured in 75 cm^2 flasks using DMEM with 4.5 g/L glucose supplemented with 10% FBS, 1% NEAA and 1% antibiotic. Cells were maintained at 37 °C, in a 5% CO2 and 95% air atmosphere, and the cell culture medium was changed every 2−3 days. Cultures were passaged weekly by trypsinization (0.25% trypsin/1 mM EDTA). In all experiments, the cells were seeded at a density of 60,000 cells/cm^2 and used three days after seeding, when confluence was reached. The cells used in all experiments were taken between the 55th and 64th passages.
# (§2) The compounds’ (0−20 μM) cytotoxicity was evaluated by the neutral red (NR) uptake and Sulforhodamine B (SRB) binding assays, 24 h after exposure. Caco-2 cells were seeded onto 96-well plates at a density of 60,000 cells/cm^2 and exposed, after reaching confluence (three days after seeding), to the compounds (0–20 μM), in a fresh cell culture medium. Triton™ X-100 (0.1%) was used as a positive control.
# The NR assay is based on the ability of viable cells to incorporate and bind the supravital dye NR into the lysosomes, thus providing a quantitative estimation of the number of viable cells in a culture. Twenty-four hours after exposure to the compounds, the cell culture medium was removed, followed by the addition of fresh cell culture medium containing 50 μg/mL NR, and incubation at 37 °C in a humidified 5% CO2 and 95% air atmosphere, for 90 min. After this incubation period, the cell culture medium was removed, the dye absorbed only by viable cells extracted with absolute ethyl alcohol/distilled water (1:1) with 5% acetic acid, and the absorbance measured at 540 nm in a multiwell plate reader (PowerWaveX BioTek Instruments, VT, USA). The percentage of NR uptake relatively to that of the control cells (0 µM) was used as the cytotoxicity measure. Five independent experiments were performed, in triplicate.
# Caco-2 cells [3] = test: Cytotoxicity in Caco-2 cells, sulforhodamine B (SRB) binding assay; assay type: cell-based, human; details: 24 h after exposure
# Procedure: as §1, §2
# The SRB binding assay is based on the pH-dependent binding of SRB to basic amino acids of cellular proteins under mild acidic conditions. […] The bounded SRB was then extracted with a Tris base solution (10 mM, pH 10.5) and the absorbance was measured, at 540 nm, in a multi-well plate reader (PowerWaveX BioTek Instruments, VT, USA). […]
Compound,decrease in the MIC of CTX (E. coli SA/2) [fold],IC50 at 24 h ([1]; NIH/3T3 mouse fibroblast cells) [µM],NR uptake (relative to control cells) (Caco-2 cells [2]; 20 µM),other results
CCCOc1ccc(NCCN(CC)CC)c2c(=O)c3ccccc3sc12 [Compound 2],–,–,–,type of P-gp inhibition (P-gp): competitive inhibitor
CCCOc1ccc(N2CCCCC2)c2c(=O)c3ccccc3sc12 [Compound 3],–,–,–,IC50 at 24 h [1]: > 100 µM
"CCCOc1ccc(Nc2nc(C)cc(C)n2)c2c(=O)c3ccccc3sc12 [Compound 8, 1-[(4,6-Dimethylpyrimidin-2-yl)amino]-4-propoxy-9H-thioxanthen-9-one]",4,> 100,–,–
"CCCOc1ccc(N2CCNC(=O)C2)c2c(=O)c3ccccc3sc12 [Compound 9, 4-(9-Oxo-4-propoxy-9H-thioxanthen-1-yl)piperazin-2-one]",–,–,–,P-gp expression levels (control cells 100%) (P-glycoprotein (P-gp)): no significant differences
"CCCOc1ccc(NCCO)c2c(=O)c3ccccc3sc12 [Compound 10, 1-[(2-Hydroxyethyl)amino]-4-propoxy-9H-thioxanthen-9-one]",4,–,–,–
"CCCOc1ccc(NS(=O)(=O)c2ccc(C(=O)O)cc2)c2c(=O)c3ccccc3sc12 [Compound 12, 4-[N-(9-Oxo-4-propoxy-9H-thioxanthen-1-yl)sulfamoyl]benzoic acid]",16,64.5 ± 4.54,–,–
"CCCOc1ccc(NS(=O)(=O)c2ccc(N)cc2)c2c(=O)c3ccccc3sc12 [Compound 13, 4-Amino-N-(9-oxo-4-propoxy-9H-thioxanthen-1-yl)benzenesulfonamide]",–,> 100,no significant effect,NR uptake (relative to control cells) (Caco-2 cells [2]; 10 µM): 95.5%
"CCCOc1ccc(Br)c2c(=O)c3ccccc3sc12 [Compound 14, 1-Bromo-4-propoxy-9H-thioxanthen-9-one]",–,–,–,P-gp expression levels (control cells 100%) (P-glycoprotein (P-gp)): 83%
CCCOc1ccc2ncnc3c2c1Sc1ccccc1-3 [Compound 15],–,–,92.2%,–
CCCOc1ccc2nc(N)nc3c2c1Sc1ccccc1-3 [Compound 16],–,–,94.1%,–
CCCOc1ccc2nc(NCc3ccccc3Cl)nc3c2c1Sc1ccccc1-3 [Compound 17],–,> 100,95.5%,SRB binding vs control cells (Caco-2 cells [3]; 10 µM): no significant differences; SRB binding (relative to control cells) (Caco-2 cells [3]; 20 µM): 105.8%
CCCOc1ccc2c3c(n/c(=N\c4ccccc4C)n2-c2ccccc2C)-c2ccccc2Sc13 [Compound 18],4,–,–,–
